US12479847B2 (DANA-FARBER CANCER INSTITUTE, INC., priority 2019, dated 2025)
Like-named read-outs stand apart in the source and are kept apart here.

Experiments:
Assay in all cases: KINOMEscan (ScanMAX) kinase profiling
Type in all cases: binding
panel of 468 kinases [1] = biological target: T1, panel of 468 kinases (Homo sapiens, UniProt Q6PHR2); conditions: ULK3; 1 μM; read-out: % control
T1 construct: purchased KINOMEscan (ScanMAX) service
T1 sequence (Q6PHR2 1-472): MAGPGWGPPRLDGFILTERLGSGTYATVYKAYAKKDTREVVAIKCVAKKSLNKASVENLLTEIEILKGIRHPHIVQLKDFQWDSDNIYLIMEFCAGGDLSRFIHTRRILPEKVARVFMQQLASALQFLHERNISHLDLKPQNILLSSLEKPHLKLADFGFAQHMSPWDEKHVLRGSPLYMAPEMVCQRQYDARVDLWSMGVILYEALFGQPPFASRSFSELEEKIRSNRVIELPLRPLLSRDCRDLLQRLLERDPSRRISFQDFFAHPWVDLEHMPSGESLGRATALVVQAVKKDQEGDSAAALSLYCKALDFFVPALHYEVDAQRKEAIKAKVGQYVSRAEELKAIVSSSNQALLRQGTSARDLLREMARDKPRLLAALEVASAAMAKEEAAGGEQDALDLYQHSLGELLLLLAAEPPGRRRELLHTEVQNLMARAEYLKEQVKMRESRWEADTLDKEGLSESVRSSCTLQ

panel of 468 kinases [2] = biological target: T2, panel of 468 kinases (Homo sapiens, UniProt Q16659); conditions: ERK3; 1 μM; read-out: % control
T2 construct: purchased KINOMEscan (ScanMAX) service
T2 sequence (Q16659 whole entry): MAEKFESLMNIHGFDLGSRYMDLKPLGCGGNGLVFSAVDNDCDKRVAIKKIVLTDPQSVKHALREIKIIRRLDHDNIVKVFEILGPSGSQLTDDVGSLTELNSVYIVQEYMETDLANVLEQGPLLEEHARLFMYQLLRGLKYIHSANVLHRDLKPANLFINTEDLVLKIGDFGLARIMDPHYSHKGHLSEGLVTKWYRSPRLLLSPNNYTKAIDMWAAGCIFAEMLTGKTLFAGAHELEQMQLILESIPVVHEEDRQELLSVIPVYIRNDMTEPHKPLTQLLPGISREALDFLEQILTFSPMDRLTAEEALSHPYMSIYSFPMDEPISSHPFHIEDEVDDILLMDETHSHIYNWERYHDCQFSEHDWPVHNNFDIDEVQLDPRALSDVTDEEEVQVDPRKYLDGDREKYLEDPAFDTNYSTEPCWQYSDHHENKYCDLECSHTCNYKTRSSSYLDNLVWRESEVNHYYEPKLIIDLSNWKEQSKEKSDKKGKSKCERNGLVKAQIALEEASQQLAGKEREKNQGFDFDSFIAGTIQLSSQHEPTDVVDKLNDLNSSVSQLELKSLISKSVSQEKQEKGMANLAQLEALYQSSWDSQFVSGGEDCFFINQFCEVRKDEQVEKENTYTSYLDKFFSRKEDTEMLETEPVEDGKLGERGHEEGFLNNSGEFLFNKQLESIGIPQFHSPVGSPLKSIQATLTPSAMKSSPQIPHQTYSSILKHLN

panel of 468 kinases [3] = biological target: T3, panel of 468 kinases (Homo sapiens, UniProt Q13188); conditions: MST2; 1 μM; read-out: % control
T3 construct: purchased KINOMEscan (ScanMAX) service
T3 sequence (Q13188 1-491): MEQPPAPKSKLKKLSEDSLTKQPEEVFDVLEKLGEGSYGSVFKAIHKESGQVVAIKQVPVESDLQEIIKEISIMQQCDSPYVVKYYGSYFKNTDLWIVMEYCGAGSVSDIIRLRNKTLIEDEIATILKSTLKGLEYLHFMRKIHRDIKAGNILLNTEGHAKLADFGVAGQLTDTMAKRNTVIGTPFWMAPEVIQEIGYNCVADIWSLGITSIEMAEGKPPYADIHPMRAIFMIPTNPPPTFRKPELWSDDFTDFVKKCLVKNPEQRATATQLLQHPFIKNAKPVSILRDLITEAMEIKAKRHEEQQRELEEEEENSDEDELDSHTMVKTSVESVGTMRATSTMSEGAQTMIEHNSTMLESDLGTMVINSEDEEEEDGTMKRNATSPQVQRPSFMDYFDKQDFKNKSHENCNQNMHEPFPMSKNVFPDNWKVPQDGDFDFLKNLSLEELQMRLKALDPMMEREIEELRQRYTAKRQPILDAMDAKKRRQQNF

panel of 468 kinases [4] = biological target: T4, panel of 468 kinases (Homo sapiens, UniProt P51451); conditions: BLK; 1 μM; read-out: % control
T4 construct: purchased KINOMEscan (ScanMAX) service

panel of 468 kinases [5] = biological target: T5, panel of 468 kinases (Homo sapiens, UniProt P16591); conditions: FER; 1 μM; read-out: % control
T5 construct: purchased KINOMEscan (ScanMAX) service
T5 sequence (P16591 whole entry): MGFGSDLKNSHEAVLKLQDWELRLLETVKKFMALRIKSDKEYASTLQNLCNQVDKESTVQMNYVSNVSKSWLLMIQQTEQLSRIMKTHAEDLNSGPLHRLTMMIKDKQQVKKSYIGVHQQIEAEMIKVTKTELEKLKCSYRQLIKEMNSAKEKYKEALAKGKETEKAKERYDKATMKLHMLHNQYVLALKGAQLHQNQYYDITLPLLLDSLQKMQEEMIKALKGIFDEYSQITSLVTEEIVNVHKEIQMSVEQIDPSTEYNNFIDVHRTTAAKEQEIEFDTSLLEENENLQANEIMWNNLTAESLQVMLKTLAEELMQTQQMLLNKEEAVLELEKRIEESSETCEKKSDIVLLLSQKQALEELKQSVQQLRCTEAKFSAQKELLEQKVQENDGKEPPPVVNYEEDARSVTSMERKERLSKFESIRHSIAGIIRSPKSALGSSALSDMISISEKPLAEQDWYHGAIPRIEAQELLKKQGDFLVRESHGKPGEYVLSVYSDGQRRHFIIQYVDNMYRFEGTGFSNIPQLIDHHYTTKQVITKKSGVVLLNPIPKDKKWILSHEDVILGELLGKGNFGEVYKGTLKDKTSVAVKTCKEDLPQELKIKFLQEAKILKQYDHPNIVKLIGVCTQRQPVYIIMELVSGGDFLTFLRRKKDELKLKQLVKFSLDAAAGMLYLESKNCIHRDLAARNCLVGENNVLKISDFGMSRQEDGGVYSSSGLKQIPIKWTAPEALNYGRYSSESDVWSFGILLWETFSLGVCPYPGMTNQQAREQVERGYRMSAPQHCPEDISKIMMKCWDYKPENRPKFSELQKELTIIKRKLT

panel of 468 kinases [6] = biological target: T6, panel of 468 kinases (Homo sapiens, UniProt P00519); conditions: 1 μM, read-out: % control
T6 construct: purchased KINOMEscan (ScanMAX) service
T6 sequence (P00519 whole entry): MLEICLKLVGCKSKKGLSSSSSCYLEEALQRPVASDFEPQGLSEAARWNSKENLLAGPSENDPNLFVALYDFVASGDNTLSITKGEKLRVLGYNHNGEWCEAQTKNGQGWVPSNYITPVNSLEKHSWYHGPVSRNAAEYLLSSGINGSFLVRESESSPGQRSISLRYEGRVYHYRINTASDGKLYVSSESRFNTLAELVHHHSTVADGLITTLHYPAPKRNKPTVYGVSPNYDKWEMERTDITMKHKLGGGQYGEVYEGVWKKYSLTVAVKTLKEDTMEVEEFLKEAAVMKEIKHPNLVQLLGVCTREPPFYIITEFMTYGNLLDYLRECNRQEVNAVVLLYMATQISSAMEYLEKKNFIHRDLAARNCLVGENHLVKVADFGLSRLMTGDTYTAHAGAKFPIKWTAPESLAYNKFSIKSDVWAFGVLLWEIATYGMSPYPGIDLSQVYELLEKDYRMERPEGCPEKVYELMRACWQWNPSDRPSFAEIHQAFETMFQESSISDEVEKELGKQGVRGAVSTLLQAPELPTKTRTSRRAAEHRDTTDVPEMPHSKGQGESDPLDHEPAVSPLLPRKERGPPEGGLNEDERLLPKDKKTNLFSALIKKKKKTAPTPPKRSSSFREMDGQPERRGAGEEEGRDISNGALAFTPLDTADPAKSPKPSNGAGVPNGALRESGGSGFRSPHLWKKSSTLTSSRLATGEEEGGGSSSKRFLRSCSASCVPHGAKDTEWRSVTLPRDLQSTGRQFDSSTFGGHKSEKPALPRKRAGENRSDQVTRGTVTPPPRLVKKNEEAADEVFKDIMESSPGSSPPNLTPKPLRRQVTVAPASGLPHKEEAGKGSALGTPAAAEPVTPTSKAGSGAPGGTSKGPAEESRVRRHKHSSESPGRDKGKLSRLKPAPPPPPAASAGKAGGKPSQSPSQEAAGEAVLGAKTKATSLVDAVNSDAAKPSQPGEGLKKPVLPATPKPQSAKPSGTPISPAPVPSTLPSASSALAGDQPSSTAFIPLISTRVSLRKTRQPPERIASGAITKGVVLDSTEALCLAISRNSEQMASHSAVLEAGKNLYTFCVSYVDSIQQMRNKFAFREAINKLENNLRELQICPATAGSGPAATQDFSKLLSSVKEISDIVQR

panel of 468 kinases [7] = biological target: T7, panel of 468 kinases (Homo sapiens, UniProt O75676); conditions: 1 μM, read-out: % control
T7 construct: purchased KINOMEscan (ScanMAX) service
T7 sequence (O75676 whole entry): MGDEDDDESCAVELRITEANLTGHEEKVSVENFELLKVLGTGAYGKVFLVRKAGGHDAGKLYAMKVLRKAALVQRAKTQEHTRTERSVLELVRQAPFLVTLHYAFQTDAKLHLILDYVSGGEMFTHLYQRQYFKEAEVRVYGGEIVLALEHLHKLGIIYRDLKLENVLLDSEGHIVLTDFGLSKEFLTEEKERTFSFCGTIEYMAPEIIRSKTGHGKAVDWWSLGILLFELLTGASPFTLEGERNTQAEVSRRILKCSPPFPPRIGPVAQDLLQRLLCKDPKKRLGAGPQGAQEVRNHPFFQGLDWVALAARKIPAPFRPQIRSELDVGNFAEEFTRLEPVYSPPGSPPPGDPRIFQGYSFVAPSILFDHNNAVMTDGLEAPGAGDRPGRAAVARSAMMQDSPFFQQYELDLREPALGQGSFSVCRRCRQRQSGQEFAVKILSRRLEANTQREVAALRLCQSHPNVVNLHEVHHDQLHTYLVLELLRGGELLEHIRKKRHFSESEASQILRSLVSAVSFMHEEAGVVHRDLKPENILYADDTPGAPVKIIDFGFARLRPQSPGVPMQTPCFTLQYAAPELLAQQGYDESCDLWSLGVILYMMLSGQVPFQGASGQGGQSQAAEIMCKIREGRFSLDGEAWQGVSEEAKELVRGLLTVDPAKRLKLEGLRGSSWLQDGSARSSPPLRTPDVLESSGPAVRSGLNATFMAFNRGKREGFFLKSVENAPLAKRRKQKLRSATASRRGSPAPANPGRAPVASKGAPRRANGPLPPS

panel of 468 kinases [8] = biological target: T8, panel of 468 kinases (Homo sapiens, UniProt P29597); conditions: 1 μM, read-out: % control
T8 construct: purchased KINOMEscan (ScanMAX) service
T8 sequence (P29597 whole entry): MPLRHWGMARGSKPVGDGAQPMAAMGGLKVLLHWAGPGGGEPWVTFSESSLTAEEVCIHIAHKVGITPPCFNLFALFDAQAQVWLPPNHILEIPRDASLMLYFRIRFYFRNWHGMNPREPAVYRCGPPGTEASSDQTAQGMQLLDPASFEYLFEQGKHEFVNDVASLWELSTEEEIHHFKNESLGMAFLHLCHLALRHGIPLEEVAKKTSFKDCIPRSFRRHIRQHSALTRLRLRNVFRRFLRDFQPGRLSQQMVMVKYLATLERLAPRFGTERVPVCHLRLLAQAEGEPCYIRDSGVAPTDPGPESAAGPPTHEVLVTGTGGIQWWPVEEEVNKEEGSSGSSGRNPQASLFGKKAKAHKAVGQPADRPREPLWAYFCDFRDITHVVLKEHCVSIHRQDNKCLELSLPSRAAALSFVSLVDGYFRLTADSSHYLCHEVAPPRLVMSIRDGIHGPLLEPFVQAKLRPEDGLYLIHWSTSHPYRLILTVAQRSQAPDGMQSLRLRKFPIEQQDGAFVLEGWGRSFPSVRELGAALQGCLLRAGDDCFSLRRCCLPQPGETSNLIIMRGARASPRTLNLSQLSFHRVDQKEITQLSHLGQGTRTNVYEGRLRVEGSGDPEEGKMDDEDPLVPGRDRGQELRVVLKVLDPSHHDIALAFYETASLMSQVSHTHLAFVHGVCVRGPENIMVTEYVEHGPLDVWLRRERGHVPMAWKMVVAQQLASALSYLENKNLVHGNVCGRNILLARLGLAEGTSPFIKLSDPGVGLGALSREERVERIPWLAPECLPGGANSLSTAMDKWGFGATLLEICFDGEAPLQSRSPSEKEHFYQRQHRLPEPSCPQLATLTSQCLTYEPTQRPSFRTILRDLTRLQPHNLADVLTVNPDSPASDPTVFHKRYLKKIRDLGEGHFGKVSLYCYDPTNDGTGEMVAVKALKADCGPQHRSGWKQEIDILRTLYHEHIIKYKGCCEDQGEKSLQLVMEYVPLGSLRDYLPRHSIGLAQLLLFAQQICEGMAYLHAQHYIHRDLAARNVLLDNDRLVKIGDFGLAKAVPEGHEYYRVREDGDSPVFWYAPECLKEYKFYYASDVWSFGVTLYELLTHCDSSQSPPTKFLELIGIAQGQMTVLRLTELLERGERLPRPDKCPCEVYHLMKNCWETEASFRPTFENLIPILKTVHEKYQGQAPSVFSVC

panel of 468 kinases [9] = biological target: T9, panel of 468 kinases (Homo sapiens, UniProt Q32MK0); conditions: MLCK; 1 μM; read-out: % control
T9 construct: purchased KINOMEscan (ScanMAX) service
T9 sequence (Q32MK0 1-819): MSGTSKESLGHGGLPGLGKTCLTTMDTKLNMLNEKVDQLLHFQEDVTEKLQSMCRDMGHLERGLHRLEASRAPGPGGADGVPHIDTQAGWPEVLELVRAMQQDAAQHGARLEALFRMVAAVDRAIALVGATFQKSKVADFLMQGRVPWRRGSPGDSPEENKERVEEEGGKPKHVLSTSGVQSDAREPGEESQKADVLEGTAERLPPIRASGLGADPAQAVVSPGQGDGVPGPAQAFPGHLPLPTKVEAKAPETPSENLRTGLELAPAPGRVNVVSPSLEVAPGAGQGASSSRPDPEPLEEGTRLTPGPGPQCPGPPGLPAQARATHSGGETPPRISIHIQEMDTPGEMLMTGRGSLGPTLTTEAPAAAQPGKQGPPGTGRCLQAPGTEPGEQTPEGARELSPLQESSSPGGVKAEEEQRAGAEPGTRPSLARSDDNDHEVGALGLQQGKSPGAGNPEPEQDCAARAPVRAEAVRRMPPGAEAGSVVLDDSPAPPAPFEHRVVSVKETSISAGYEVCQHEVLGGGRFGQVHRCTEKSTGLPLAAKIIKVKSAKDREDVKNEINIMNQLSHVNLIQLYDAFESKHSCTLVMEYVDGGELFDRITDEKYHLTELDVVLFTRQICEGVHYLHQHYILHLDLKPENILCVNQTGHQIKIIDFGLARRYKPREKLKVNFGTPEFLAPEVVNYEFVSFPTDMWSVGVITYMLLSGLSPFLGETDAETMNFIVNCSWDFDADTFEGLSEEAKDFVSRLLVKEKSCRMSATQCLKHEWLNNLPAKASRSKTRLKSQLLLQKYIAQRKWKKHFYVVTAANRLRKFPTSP

SMILES	remaining binding at 1 µM (panel of 468 kinases [1])	remaining binding at 1 µM (panel of 468 kinases [2])	remaining binding at 1 µM (panel of 468 kinases [3])	remaining binding at 1 µM (panel of 468 kinases [4])	remaining binding at 1 µM (panel of 468 kinases [5])	remaining binding at 1 µM (panel of 468 kinases [6]; ABL1-nonphosphorylated)	remaining binding at 1 µM (panel of 468 kinases [6]; ABL1-phosphorylated)	remaining binding at 1 µM (panel of 468 kinases [7]; RPS6KA4(Kin.Dom.1-N-terminal))	remaining binding at 1 µM (panel of 468 kinases [7]; RPS6KA4(Kin.Dom.2-C-terminal))	remaining binding at 1 µM (panel of 468 kinases [8]; TYK2(JH1domain-catalytic))	remaining binding at 1 µM (panel of 468 kinases [8]; TYK2(JH2domain-pseudokinase))	remaining binding at 1 µM (panel of 468 kinases [9])
CNc1nc(Nc2ccc(S(=O)(=O)N3CCC(N4CCOCC4)CC3)cc2OC)nc2[nH]cc(Cl)c12 [Compound 12, 5-chloro-N2-(2-methoxy-4-((4-morpholinopiperidin-1-yl)sulfonyl)phenyl)-N4-methyl-7H-pyrrolo[2,3-d]pyrimidine-2,4-diamine]	65%	100%	100%	100%	44%	80%	72%	100%	13%	90%	88%	100%
CNc1nc(Nc2ccc(C(=O)N3CCC(N4CCOCC4)CC3)c3c2OCO3)nc2[nH]cc(Cl)c12 [Compound 75, (7-((5-chloro-4-(methylamino)-7H-pyrrolo[2,3-d]pyrimidin-2-yl)amino)benzo[d][1,3]dioxol-4-yl)(4-morpholinopiperidin-1-yl)methanone]	7.6%	91%	45%	100%	56%	94%	80%	89%	3.9%	46%	100%	35%
CNc1nc(Nc2ccc(P3(=O)CCN(C4CCOCC4)CC3)cc2OC)nc2[nH]cc(Cl)c12 [Compound 77, 4-(4-((5-chloro-4-(methylamino)-7H-pyrrolo[2,3-d]pyrimidin-2-yl)amino)-3-methoxyphenyl)-1-(tetrahydro-2H-pyran-4-yl)-1,4-azaphosphinane 4-oxide]	65%	99%	100%	100%	20%	92%	80%	100%	0.7%	66%	82%	98%
